Patent US8524691B2, “Phosphonated rifamycins and uses thereof for the prevention and treatment of bone and joint infections” (The Medicines Company, priority 2008, dated 2013)
In brackets after ≈: the same amount, converted by molar mass. Read-outs that look alike come from different tables or passages of the source.

Legend:
[1] = test system: S. aureus ATCC 13709^A, Novobiocin and Rifampicin resistant variant; assay: Antibacterial susceptibility (MIC), NCCLS broth microdilution; type: cell-based
How it was run: (§1)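 Two-fold serial dilutions in DMSO were tested in cation-adjusted Mueller Hinton broth, following NCCLS M26-A, at 5×10^5 c.f.u./mL with 1.25% DMSO final, in duplicate. Plates were incubated at 37 °C for 18 h. MIC was the lowest concentration inhibiting visible growth.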

S. aureus ATCC 29213 = assay: as above; type: cell-based
How it was run: as §1

S. aureus ATCC 13709 [2] = assay: microbe, parasite or virus in culture; type: cell-based
How it was run: as §1

S. aureus ATCC 13709 [3] = assay: microbe, parasite or virus in culture; type: cell-based; conditions: for MIC: Staphylococcus aureus, ATCC13709, 18 h
[4] = type: in vitro ADME; conditions: for % Conversion (prodrug converted to parent drug after binding to bone): 24 h incubation, 37° C.
Protocol: Amounts of parent drug “regenerated” from the phosphonated prodrug were measured as follows. Washed bone powder-bound prodrugs from the above experiment were resuspended in 400 μL PBS+2% DMSO or in 400 μL 50% (v/v in PBS+2% DMSO) human or rat serum. The suspension was incubated overnight at 37° C., centrifuged at 13,000 rpm for 2 min and the supernatant was recovered. The amount of regenerated parent drug in the supernatant was determined by measurements using the microbiological assay that was previously described for the prodrugs themselves. The amount of prodrug was deduced from standard curves of known amounts of parent drug that were used as reference for each experiment. The amount of regenerated drug assessed by this bioassay was corroborated by MIC determination. The percentage of drug regenerated in PBS or serum after the overnight incubation (Table 2) was deduced from the difference between the amount of bound prodrug and the amount of regenerated drug (not shown).

[5] = test system: Novobiocin resistant mutant strain of S. aureus ATCC 13709; assay: Prophylactic efficacy in rat model of S. aureus bone infection; type: in vivo; conditions: for Measured bacterial titer, test compound: 20 mg/kg parent drug equivalent, tibia 24 h postinfection
How it was run: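 Female CD rats (n=5/group) received an intra-tibial injection of sodium morrhuate followed by about 2×10^7 CFU of a novobiocin-resistant S. aureus ATCC 13709 mutant. Prodrugs in saline were given as a single IV bolus at set times before infection, and moxifloxacin 10 mg/kg IV at 1 h post-infection. Tibial bacterial load (Log CFU/g bone; detection limit 2 Log) was measured at 24 h and compared by Dunnett's test.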

[6] = single intravenous bolus 1 day prior to infection
[7] = single intravenous bolus 5 days prior to infection

SMILES: CCC(=O)OCOC(=O)N[C@@H](CCC(=O)NC(P(=O)(O)O)P(=O)(O)O)C(=O)N(C)CC(=O)O[C@@H]1[C@@H](C)[C@@H](O)[C@@H](C)[C@H](OC(C)=O)[C@H](C)[C@@H](OC)/C=C/O[C@@]2(C)Oc3c(C)c(O)c4c(c3C2=O)C2=NC3(CCN(CC(C)C)CC3)NC2=C(NC(=O)/C(C)=C\C=C\[C@@H]1C)C4=O [Compound 102]
- MIC ([1]; Staphylococcus aureus, ATCC13709, read-out: Minimum inhibitory concentration, S. aureus ATCC 13709^A): > 128 µg/mL
- MIC (S. aureus ATCC 29213; Staphylococcus aureus, ATCC29213, 18 h, read-out: Minimum inhibitory concentration, S. aureus ATCC 29213): 2 µg/mL (≈ 1.48 µM)
- MIC (S. aureus ATCC 13709 [2]; Staphylococcus aureus, ATCC13709, 18 h, read-out: Minimum inhibitory concentration, S. aureus ATCC 13709): 4 µg/mL (≈ 2.96 µM)
- Serum dependence of antibacterial activity (in words) (S. aureus ATCC 13709 [3]; MIC with versus without serum): significant increase in antibacterial activity in serum
- MIC (S. aureus ATCC 13709 [3]; read-out: Minimum inhibitory concentration, ATCC 13709 + 50% Human Serum): 16 µg/mL
- MIC (S. aureus ATCC 13709 [3]; read-out: Minimum inhibitory concentration, ATCC 13709 + 50% Mouse Serum): 0.0625 µg/mL
- MIC (S. aureus ATCC 13709 [3]; read-out: Minimum inhibitory concentration, ATCC 13709 + 50% Rat Serum): 0.0156 µg/mL
- Release of parent rifabutin from bone powder-bound prodrug (in words) ([4]; PBS versus serum): regeneration is clearly accelerated by the presence of serum
- Measured bacterial titer, test compound [5, 6]: 2.89 ± 1.13 Log CFU/g of bone
- Measured bacterial titer, test compound [5, 7]: 5.38 ± 0.83 Log CFU/g of bone
- Prophylactic activity in rat bone infection model (in words) ([5]; 20 mg/kg, 1 day or 5 days prior to infection): active at 1 day and display activity similar to rifabutin at 5 days

SMILES: CCN(CC)CC.CO[C@H]1/C=C/O[C@@]2(C)Oc3c(C)c(O)c4c(c3C2=O)C2=NC3(CCN(CC(C)C)CC3)NC2=C(NC(=O)/C(C)=C\C=C\[C@H](C)[C@H](OC(=O)CN(C)C(=O)Nc2ccc(CC(P(=O)(O)O)P(=O)(O)O)cc2)[C@@H](C)[C@@H](O)[C@@H](C)[C@H](OC(C)=O)[C@@H]1C)C4=O [Compound 142b]
- Minimum inhibitory concentration, S. aureus ATCC 13709^A [1]: >128 µg/mL
- Minimum inhibitory concentration, S. aureus ATCC 29213 (S. aureus ATCC 29213; CAMHB, 37° C., 18 h): 0.0625 µg/mL
- Minimum inhibitory concentration, S. aureus ATCC 13709 (S. aureus ATCC 13709 [2]; CAMHB, 37° C., 18 h): 0.125 µg/mL
- Antibacterial activity (in words, from Table 1) (S. aureus ATCC 13709 [2]; S. aureus MIC): very low MICs whether in the absence or in the presence of serum
- Minimum inhibitory concentration, ATCC 13709 + 50% Human Serum (S. aureus ATCC 13709 [3]; 50% Human Serum): 0.5 µg/mL
- Minimum inhibitory concentration, ATCC 13709 + 50% Mouse Serum (S. aureus ATCC 13709 [3]; 50% Mouse Serum): 0.0625 µg/mL
- Minimum inhibitory concentration, ATCC 13709 + 50% Rat Serum (S. aureus ATCC 13709 [3]; 50% Rat Serum): 0.008 µg/mL
- Release of parent rifabutin from bone powder-bound prodrug (in words) [4]: release significant amounts of the parent rifabutin once bound to bone powder, regardless of the presence of serum
- % Conversion (prodrug converted to parent drug after binding to bone) ([4]; 50% Heat Inactivated Rat Serum): 0.24 ± 0.04%
- % Conversion (prodrug converted to parent drug after binding to bone) ([4]; 50% Rat Serum): 0.22 ± 0.06%
- % Conversion (prodrug converted to parent drug after binding to bone) ([4]; PBS): 0.37 ± 0.08%
- Measured bacterial titer, test compound [5, 6]: 2.14 ± 0.08 Log CFU/g of bone
- Measured bacterial titer, test compound [5, 7]: 4.79 ± 1.40 Log CFU/g of bone
